Read-outs that look alike come from different tables or passages of the source. Numbered stars: 1 amine (or outer) side, 2 acyl side, 3 side chain; on linkers, the order of the positions; unused ones are H or OH. Square brackets hold non-standard residues; d marks the D form. Peptide text beside a SMILES is read from it. X1 = COc1ccc(CN([C@@H](C)C(=O)[*:2])[*:1])cc1OC; Gly(Nα-4-F-phenethyl) = O=C(O)CNCCc1ccc(F)cc1; X3 = COc1ccc(CN(CC(=O)[*:2])[*:1])cc1OC; X2 = C[C@@H](C(=O)[*:2])N(CCCCN)[*:1]; Gly(N-propargyl) = C#CCNCC(=O)O; NFurfurylGly = O=C(O)CNCc1ccco1; Nlys = NCCCCNCC(=O)O

Experimental findings from US10370409B2, “Synthesis of libraries of peptide tertiary amides” (The Scripps Research Institute, priority 2011, dated 2019) are described below.

One assay deals with scFv PX4-4. Put plainly: Fluorescence polarization / anisotropy titration of fluorescein-labelled compounds with PX4-4. In kind it is binding, human. The conditions noted are these: for Kd: FP titration with PX4-4. The procedure: Hits identification: All 17 hits were cleaved using CNBr and then characterized by MALDI mass spectrum. All 17 structures were resynthesized and examined against PX4-4 with FP assay. Only one hit was identified as binder with a Kd <10 μM.
(§1) The affinity of compound 13 for PX4-4 was determined by fluorescence anisotropy.
96 beads were chosen randomly from the library and placed individually into the wells of a 96-well filter plate. Each well was treated with fluorescein azide and a copper catalyst to attach fluorescein to the alkyne handle and then the compounds were cleaved from beads. The beads were filtered out and the soluble compounds were used for the fluorescence polarization (FP) assay. All 27 possible structures were found in this collection of molecules by tandem MS sequencing. Semi-quantitative binding constants for the PX4-4 antibody all 27 of the compounds were determined by titrating the compounds with the protein in the microwell format and monitoring the increase in FP. […] Most of the curves approached saturation, allowing for an accurate determination of the KD. In contrast, compound A41, corresponding to peptoid 14), was not saturated in the tested protein concentration range (100 nM to 400 μM) (FIG. 9B).
In general terms: Fluorescence polarisation rises when a labelled molecule tumbles more slowly, as on binding a larger partner.

Another assay deals with whole human IgG. The assay can be described thus: Fluorescence polarization selectivity test with a mixture of human IgG. In kind it is binding. The conditions noted are these: FP experiment repeated using a mixture of human IgG; FIG. 9B. The procedure: as §1
To address the selectivity of compounds A14 (N,R,S configuration), A7 (N,S,S), A68 (R,S,R), A41(N,N,N) and A24 (R,R,R) for PX4-4, the FP experiment was repeated using a mixture of human IgG as we did previously for compound 13. […] This implies that greater conformational flexibility is associated with binding promiscuity.

The mark [1] stands for this setting: re-synthesized and purified compounds, read-out: Kd-re.
The mark [2] stands for this setting: semi-quantitative, compounds cleaved from single beads, 96-well microwell format, read-out: Kd-96.

Broadly, the Kd is the equilibrium constant for the complex coming apart. With `C#CCN(CC(=O)N(CCCCN)CC(=O)N(CC(N)=O)Cc1ccco1)C(=O)CN(CCCCN)C(=O)CN(CCc1ccc(F)cc1)C(=O)[C@H](C)N(CCCCN)C(=O)[C@H](C)NCc1ccc(OC)c(OC)c1` [A7] (H-[X1][X2][Gly(Nα-4-F-phenethyl)][Nlys][Gly(N-propargyl)][Nlys][NFurfurylGly]-NH2), the figures for the Kd on scFv PX4-4 (setting [1]) and on scFv PX4-4 (setting [2]) were 25.4 µM and 40.9 µM, respectively. The “binding with whole human IgG” value in the assay with whole human IgG is “no binding”.
The corresponding values for `[2H]C([2H])([2H])[C@]([2H])(C(=O)N(CCc1ccc(F)cc1)CC(=O)N(CCCCN)CC(=O)N(CC#C)CC(=O)N(CCCCN)CC(=O)N(CC(N)=O)Cc1ccco1)N(CCCCN)C(=O)[C@H](C)NCc1ccc(OC)c(OC)c1` [A14] are 19.1 µM, 27.5 µM and “no binding”.
The corresponding values for `[2H]C([2H])([2H])[C@@]([2H])(NCc1ccc(OC)c(OC)c1)C(=O)N(CCCCN)[C@@]([2H])(C(=O)N(CCc1ccc(F)cc1)[C@@]([2H])(C(=O)N(CCCCN)CC(=O)N(CC#C)CC(=O)N(CCCCN)CC(=O)N(CC(N)=O)Cc1ccco1)C([2H])([2H])[2H])C([2H])([2H])[2H]` [A24] are 233 µM, 117 µM and “no binding”.
For `C#CCN(CC(=O)N(CCCCN)CC(=O)N(CC(N)=O)Cc1ccco1)C(=O)CN(CCCCN)C(=O)CN(CCc1ccc(F)cc1)C(=O)CN(CCCCN)C(=O)CNCc1ccc(OC)c(OC)c1` [A41] (H-[X3][Nlys][Gly(Nα-4-F-phenethyl)][Nlys][Gly(N-propargyl)][Nlys][NFurfurylGly]-NH2), in the assay with scFv PX4-4 (protein concentration range 100 nM to 400 μM, FIG. 9B), the “saturation of FP binding curve with PX4-4” value is listed as “not saturated”. The Kd on scFv PX4-4 (setting [2]) amounted to 113 µM.
In the case of `[2H]C([2H])([2H])[C@@]([2H])(NCc1ccc(OC)c(OC)c1)C(=O)N(CCCCN)[C@@H](C)C(=O)N(CCc1ccc(F)cc1)[C@@]([2H])(C(=O)N(CCCCN)CC(=O)N(CC#C)CC(=O)N(CCCCN)CC(=O)N(CC(N)=O)Cc1ccco1)C([2H])([2H])[2H]` [A68], the Kd at scFv PX4-4 (setting [1]) was 65.2 µM; on scFv PX4-4 (setting [2]), 43.2 µM. The “binding with whole human IgG” value in the assay with whole human IgG is on record as “no binding”.
